Laboratory results from article PMC9916441, “Resveratrol Derivative Exhibits Marked Antiproliferative Actions, Affecting Stemness in Pancreatic Cancer Cells” (International Journal of Molecular Sciences, 2023).
Like-named read-outs stand apart in the source and are kept apart here.

Tests used:
[1] = system: cyclin B1/CDK1 complex; assay: Western blot of cyclin B1, Cdc2/Cdk1 and p-Cdc2 (Thr161) in PC cell lines; type: cell-based, human; details: 50 μM
Protocol: (§1) The PC cell lines treated with 50 μM DF5, RSV, or with vehicle (DMSO) were lysed in a cell lysis buffer containing PMSF, protease inhibitors cocktails, and phosphatase inhibitors. The protein lysate quantification and immunoblot analyses were performed as previously described.

[2] = system: AsPC-1, BxPC-3 and Capan-2 PC cell lines; assay: Cell growth, trypan blue exclusion test; type: cell-based, human; details: 50 μM, counted at 24, 48 and 72 h, three PC cell lines, vs control
Protocol: The cell counting was performed using the trypan blue exclusion test. Briefly, PC cells were seeded in 24-well plates (5 × 10^4 cells/well) and then were treated with 50 μM of DF5, RSV, or with vehicle and counted at 24, 48, and 72 h.

[3] = system: p-SER^139H2AX; assay: Western blot of phospho-H2AX (γH2AX) in PC cell lines; type: cell-based, human
Protocol: as §1

[4] = Enzymatic stability in simulated intestinal fluid (SIF) with pancreatin; type: in vitro ADME; details: SIF pH 6.8 with pancreatin, 37 °C
Protocol: (§2) The SGF and SIF, containing pepsin and pancreatin, respectively, were prepared following the USP specifications. The reactions were carried out in a shaking water bath at 37 °C. The drug stock solution (10 μL of a 10^−4 M) was added to the preheated gastrointestinal fluids and, at fixed time points (0, 15, 30, and 60 min for SGF and 0, 60, 120, and 180 min for SIF), 20 μL of the media were mixed with 200 μL of cold acetonitrile containing 0.5% v/v of formic acid. The samples were centrifuged for 10 min at 5000× g and the supernatants were analyzed using HPLC. The relative difference (RD%) was used to predict the amount of compound decomposed in the presence of gastrointestinal fluids.

[5] = system: AsPC-1; assay: MTT cell viability assay; type: cell-based, human
Protocol: (§3) The cell viability was assessed using MTT assay, as previously described. Briefly, the cells were seeded in 96-well plates (4 × 10^3 cells/well) and were treated for 72 h with different concentrations of RSV, DF5, and DF12. The IC50 values were extrapolated from dose–response curves and calculated using the CompuSyn software (https://www.combosyn.com/). The selectivity index (SI) values were calculated as ratios between the IC50 values of compounds in normal HFF-1 fibroblast cells and the IC50 values of the same compounds in the PC cell lines.

[6] = system: Capan-2; assay: MTT cell viability assay; type: cell-based, human
Protocol: as §3

[7] = system: BxPC-3; assay: MTT cell viability assay; type: cell-based, human
Protocol: as §3

[8] = Human plasma stability assay; type: in vitro ADME; details: 80% human plasma, 37 °C
Protocol: The in vitro enzymatic stabilities of DF5 were assessed in human plasma and simulated gastric and intestinal fluids (SGF and SIF, respectively). For the human plasma stability assay, 10 μL of a 10^-4 M stock solution of DF5 in acetonitrile was added to a pre-heated (37 °C) plasma fraction and diluted with phosphate buffer (pH 7.4, 0.02 M) to obtain a final volume of 1 mL (80% plasma). The samples (50 µL) were extracted at various times and 200 µL of cold acetonitrile containing 0.5% v/v of formic acid were employed to stop the enzymatic reaction. After centrifugation for 10 min at 5000 g, the supernatant was removed and analyzed using HPLC [57].

[9] = system: poly-(ADP-ribose) polymerase (PARP); assay: Western blot of PARP cleavage in PC cell lines; type: cell-based, human; details: vs untreated cells
Protocol: as §1

[10] = Enzymatic stability in simulated gastric fluid (SGF) with pepsin; type: in vitro ADME; details: SGF pH 1.2 with pepsin, 37 °C
Protocol: as §2

[11] = system: Cyclin D3; assay: Western blot of cyclin D3 in PC cell lines; type: cell-based, human; details: 50 μM
Protocol: as §1

[12] = system: AsPC-1, BxPC-3 and Capan-2 PC cell lines; assay: Cell cycle analysis by flow cytometry; type: cell-based, human; details: 50 μM, 24 h
Protocol: To perform the cell cycle analysis, the PC cells (3 × 10^5) were collected, fixed in 70% cold ethanol, and kept at 4 °C overnight. The collected cells were incubated at 4 °C overnight in 5 μg/mL PI (final concentration) and 100 μg/mL RNAse (final concentration). The cell cycle profiles were analyzed as previously described.

[13] = system: normal HFF-1 fibroblast cells; assay: MTT cell viability assay on normal fibroblasts; type: cell-based, human; details: 72 h
Protocol: as §3

[14] = Water solubility; type: physicochemical
Protocol: The solubility was determined as previously described. The calculated LogP (cLogP) value was determined using ACD LogP software package, version 4.55 (Advanced Chemistry Development Inc., Toronto, ON, Canada).

[15] = system: AsPC-1; assay: Apoptosis assay, annexin-V staining by flow cytometry; type: cell-based, human; details: 24 h
Protocol: (§4) The apoptosis assay was performed essentially as previously described. the analyses were performed using a CytoFLEX flow cytometer, using the FL1 detector in linear mode and the CytoExpert software (Beckmann Coulter, Milano, Italy).

[16] = system: Capan-2; assay: as above; type: cell-based, human; details: 24 h
Protocol: as §4

[17] = system: BxPC-3; assay: as above; type: cell-based, human; details: 24 h
Protocol: as §4

- RD% (relative difference) ([4]; 60 min): 8.12%
- RD% (relative difference) ([4]; 120 min): 9.20%
- RD% (relative difference) ([4]; 180 min): 9.36%
- IC50 ([5]; Homo sapiens, ASPC1, AsPC-1, MTT, 72 h): 14.7 µM
- IC50 ([7]; Homo sapiens, BxPC-3, MTT, 72 h): 22.7 µM
- stability in human plasma [8]: stable (stable: RD% < 5%)
- RD% (relative difference) ([10]; 15 min): 4.36%
- RD% (relative difference) ([10]; 30 min): 7.10%
- RD% (relative difference) ([10]; 60 min): 8.87%
- solubility ([14]; read-out: Classification (water solubility)): < 100 µg/mL
- solubility ([14]; read-out: Water Solubility): < 10 µg/mL
Compound: Cc1ccc(/C=C/c2ccc(O)cc2)cc1 [DF5]
- effect on expression of the cyclin B1/CDK1 complex ([1]; AsPC-1 and Capan-2, also Cdc2/CDK1 dephosphorylation at Thr-161): reduction in the expression of the cyclin B1/CDK1 complex
- effect on expression of the cyclin B1/CDK1 complex ([1]; BxPC-3): much less evident
- effect on cell growth (cell number) [2]: significantly, drastically, and comparably affected cell growth
- activation (phosphorylation) of H2AX ([3]; AsPC-1, 50 μM): marked activation of H2AX
- activation (phosphorylation) of H2AX ([3]; BxPC-3, 50 μM): negligible activation
- activation (phosphorylation) of H2AX ([3]; Capan-2, 50 μM): less marked
- Selectivity Index (SI) AsPC-1 ([5]; SI = IC50 on normal HFF-1 fibroblast cells/IC50 on AsPC-1): > 6.79
- effect on cell viability at maximum tested concentration ([6]; Capan-2, MTT, 100 µM): almost complete loss of cell viability
- IC50 ([6]; Homo sapiens, Capan-2, MTT, 72 h): 27.8 µM
- Selectivity Index (SI) Capan-2 ([6]; SI = IC50 on normal HFF-1 fibroblast cells/IC50 on Capan-2): > 3.60
- Selectivity Index (SI) BxPC-3 ([7]; SI = IC50 on normal HFF-1 fibroblast cells/IC50 on BxPC-3): > 4.41
- effect on cleaved:uncleaved PARP ratio ([9]; AsPC-1, 50 μM): strong increase in cleaved:uncleaved PARP ratios
- effect on cleaved:uncleaved PARP ratio ([9]; BxPC-3, 50 μM): minimal effects on the PARP cleavage ratio
- effect on cleaved:uncleaved PARP ratio ([9]; Capan-2, 50 μM): strong increase in cleaved:uncleaved PARP ratios
- effect on cyclin D3 expression [11]: clear-cut reduction or even an abolishment in the expression of cyclin D3
- effect on cells in G0/G1 phase ([12]; across the three PC cell lines, vs untreated cells): statistically significant accumulation of cells at the G0/G1 phase
- effect on cells in G2/M phase ([12]; three PC cell lines, in Capan-2 it did not reach statistical significance): drastic depletion of cells in the G2/M phase
- toxicity against normal HFF-1 fibroblast cells ([13]; up to 100 μM): negligible toxicity
- IC50 ([13]; Homo sapiens, normal HFF-1 fibroblasts, 100 μM highest concentration used): > 100 µM
- apoptosis induction (Annexin V+ cells) ([15]; AsPC-1, 20 μM): statistically significant apoptosis
- apoptosis induction (Annexin V+ cells) ([15]; AsPC-1, 50 μM): significant induction of apoptosis
- apoptosis induction (Annexin V+ cells) ([16]; Capan-2, 20 μM): statistically significant apoptosis
- apoptosis induction (Annexin V+ cells) ([16]; Capan-2, 50 μM): significant induction of apoptosis
- apoptosis induction (Annexin V+ cells) ([17]; BxPC-3, 20 μM): neither compound affected apoptosis
- apoptosis induction (Annexin V+ cells) ([17]; BxPC-3, 50 μM): significant induction of apoptosis
